Marks after values point to notes of the source that are not given here.
Test system: feline calicivirus (FCV)
Assay: 405 nm light inactivation of FCV suspended in supplemented minimal medium, counted by plaque assay on FEA cells
Assay type: cell-based, feline calicivirus vaccine strain F9

Compound: Cc1cc2nc3c(=O)[nH]c(=O)nc-3n(C[C@H](O)[C@H](O)[C@H](O)CO)c2cc1C [Riboflavin]
- Log10 reduction/inactivation of FCV (FCV in MM plus components at DMEM concentrations, after): 1.3 Log10
- Exposed Viral Population (±St Dev) (FCV in minimal media plus photosensitive components at DMEM concentrations, 155 mW cm^−2, mean count n = 3 ± SD): 3.77 ± 0.61
- Log10 Reduction (FCV in minimal media plus photosensitive components, 155 mW cm^−2, exposed vs non-exposed control, asterisk = P ≤ 0.05): 1.28* Log10

Source: patent US20240252697A1, “INACTIVATION OF PATHOGENS IN EX VIVO BLOOD PRODUCTS IN STORAGE BAGS USING VISIBLE LIGHT” (priority 2015, published 2024)
